# According to US7524821B2, “Scaffolded maleimide clusters for multivalent peptide assembly” (priority 2002, dated 2009):
# Like-named read-outs stand apart in the source and are kept apart here.
# Tests used:
# HIV-1 = conditions: laboratory-adapted strains and primary isolates / different strains of HIV, cited from earlier work
# [1] = Circular dichroism (CD) spectroscopy, α-helix content; format: physicochemical; conditions: based on [θ]222 and proposed formula, 50 mM phosphate buffer pH 7.4
# Experimental: FIG. 11. CD spectra of the MVP-1 and DP178. The spectra were recorded with 10 uM of DP178 and 2.5 uM of MVP-1 in a phosphate buffer (50 mM, pH 7.4) at 23° C.
# One application of the scaffolds is to induce special conformations of peptides. The circular dichroism (CD) spectra of the synthetic multivalent gp41 peptide (MVP-1) and peptide DP178 were recorded and compared (FIG. 11). It was shown that the multivalent assembling has a significant impact on the peptide conformation, leading to a great increase of the α-helical content for the peptide. […]
# Similarly, we measured the circular dichroism (CD) spectra of the cholic acid-based multivalent peptides (36a and 37b). […]
# The UV absorbance was run on Beckman DU 640 spectrophotometer. CD's spectrums were measured on Jasco-810 (CD-ORD) spectropolarimeter using quartz cuvette of 1 mm path length. […]
# The samples of tetravalent peptide 26, trivalent peptides 36a and 37b, template 3α, 7α, 12α-tri-(6-Amino-3-thia-hexy-oxyl)-24-hydroxyl-5β-cholane 32, and the single peptide DP178 were prepared in a concentration ranging from 2 to 18 μM in 50 mM phosphate buffer (pH 7.4). The exact concentration of each sample was detected by UV spectrometer just prior to CD measurement. […]
# [2] = aqueous buffer pH 7.0; cited from earlier work
# [3] = Native gel filtration (aggregation); format: physicochemical; conditions: PBS, pH 7.2, 0.5 mM
# From the text: Accordingly, the tetravalent gp41 peptides 25 and 26, each of which contains 4 strands of the 36-mer HIV-1 gp41 peptide DP178 (T20) were synthesized (FIG. 7). […] In order to ligate the peptide to the maleimide cluster, a cysteine residue was introduced at the C-terminus of the peptide during solid phase peptide synthesis.
substance,measurement,setting,value
enfuvirtide,inhibition of HIV membrane fusion,HIV-1,potent and broadly inhibitory activities
same,inhibition of HIV membrane fusion,HIV-1; listed as T20,potently inhibit
same,content of α-helix,[1],18%
same,concentration at which monomer/tetramer equilibrium and other aggregation patterns occur,[2],above 20 μM
same,concentration at which peptide is monomeric,[2],below 10 μM
same,aggregation under native gel filtration,[3],form aggregates
